Assay results published in patent publication US7625939B2, “Cyclopropyl-fused pyrrolidine derivatives as dipeptidyl peptidase IV inhibitors” (Probiodrug AG, priority 2005, dated 2009).

Columns and labels:
Format in all cases: biochemical
Settings in all cases: Gly-Pro-pNA 0.4 mM, HEPES pH 7.6, 30° C.
[1] = target: T1, purified porcine DP IV (Sus scrofa, UniProt P22411); experiment: IC50 of DP IV inhibition, porcine kidney enzyme (Gly-Pro-pNA substrate)
T1 construct: purified porcine DP IV; from tissue; host or cells: porcine kidney
Experimental: (§1) 100 μl inhibitor stock solution were mixed with 100 μl buffer (HEPES pH 7.6) and 50 μl substrate (Gly-Pro-pNA, final concentration 0.4 mM) and preincubated at 30° C. Reaction was started by addition of 20 μl enzyme solution (either purified porcine DP IV, human recombinant DP IV, human recombinant DP II or human recombinant DP9). Formation of the product pNA was measured at 405 nm over 10 min using the HTS 7000Plus plate reader (Perkin Elmer) and slopes were calculated. The final inhibitor concentrations ranged between 1 mM and 30 nM.
(§2) For calculation of IC50-values GraFit 4.0.13 (Erithacus Software) was used.

[2] = target: human recombinant DP IV (Homo sapiens, UniProt P27487); experiment: IC50 of DP IV inhibition, human recombinant enzyme (Gly-Pro-pNA substrate)
Experimental: as §1, §2

[3] = target: human recombinant DP II (Homo sapiens, UniProt Q9UHL4); experiment: IC50 of DP II inhibition, human recombinant enzyme (Gly-Pro-pNA substrate)
Experimental: as §1, §2

[4] = target: human recombinant DP9 (Homo sapiens, UniProt Q86TI2); experiment: IC50 of DP9 inhibition, human recombinant enzyme (Gly-Pro-pNA substrate)
Experimental: as §1, §2

Sequence of human recombinant DP9 (Q86TI2 whole entry): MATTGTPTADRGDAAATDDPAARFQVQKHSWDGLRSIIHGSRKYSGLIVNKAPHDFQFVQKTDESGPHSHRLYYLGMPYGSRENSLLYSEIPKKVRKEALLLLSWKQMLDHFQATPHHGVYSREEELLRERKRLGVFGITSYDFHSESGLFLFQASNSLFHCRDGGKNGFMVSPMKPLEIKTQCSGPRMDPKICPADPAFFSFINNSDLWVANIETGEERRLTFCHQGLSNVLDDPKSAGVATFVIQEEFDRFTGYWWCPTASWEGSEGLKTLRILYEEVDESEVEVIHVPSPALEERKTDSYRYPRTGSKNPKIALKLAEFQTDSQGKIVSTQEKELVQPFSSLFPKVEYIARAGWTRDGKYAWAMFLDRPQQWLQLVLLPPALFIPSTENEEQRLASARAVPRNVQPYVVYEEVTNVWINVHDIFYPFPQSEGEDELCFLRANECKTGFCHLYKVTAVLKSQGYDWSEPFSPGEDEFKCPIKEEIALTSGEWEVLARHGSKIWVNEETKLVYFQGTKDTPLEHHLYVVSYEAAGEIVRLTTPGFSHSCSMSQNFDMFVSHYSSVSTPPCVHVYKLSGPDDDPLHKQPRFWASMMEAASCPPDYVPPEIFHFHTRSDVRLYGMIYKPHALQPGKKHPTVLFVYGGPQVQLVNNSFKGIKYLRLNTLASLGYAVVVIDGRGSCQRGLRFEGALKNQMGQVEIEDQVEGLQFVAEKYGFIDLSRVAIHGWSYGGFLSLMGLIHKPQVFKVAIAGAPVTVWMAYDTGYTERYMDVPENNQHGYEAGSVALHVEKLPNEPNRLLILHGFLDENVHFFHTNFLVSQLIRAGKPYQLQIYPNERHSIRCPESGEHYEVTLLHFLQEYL
Sequence of human recombinant DP IV (P27487 whole entry): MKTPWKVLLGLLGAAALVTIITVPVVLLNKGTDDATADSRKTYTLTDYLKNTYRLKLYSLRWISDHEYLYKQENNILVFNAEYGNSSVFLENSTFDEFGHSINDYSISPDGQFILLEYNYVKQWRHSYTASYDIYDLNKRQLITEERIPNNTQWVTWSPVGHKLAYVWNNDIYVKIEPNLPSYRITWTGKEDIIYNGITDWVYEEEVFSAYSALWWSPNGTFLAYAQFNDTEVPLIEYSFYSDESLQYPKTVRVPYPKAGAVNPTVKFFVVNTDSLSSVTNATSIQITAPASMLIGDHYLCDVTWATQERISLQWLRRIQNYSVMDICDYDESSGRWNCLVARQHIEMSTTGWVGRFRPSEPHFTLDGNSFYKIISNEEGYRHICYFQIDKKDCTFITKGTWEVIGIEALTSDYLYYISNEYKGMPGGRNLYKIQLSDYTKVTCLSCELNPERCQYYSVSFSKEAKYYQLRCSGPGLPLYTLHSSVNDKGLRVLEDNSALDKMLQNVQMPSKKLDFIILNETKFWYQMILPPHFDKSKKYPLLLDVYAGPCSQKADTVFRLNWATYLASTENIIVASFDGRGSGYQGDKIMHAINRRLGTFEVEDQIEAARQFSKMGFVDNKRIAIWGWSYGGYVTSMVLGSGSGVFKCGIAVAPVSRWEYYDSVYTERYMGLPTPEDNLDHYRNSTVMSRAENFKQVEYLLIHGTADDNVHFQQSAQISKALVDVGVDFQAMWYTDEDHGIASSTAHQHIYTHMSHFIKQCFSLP
T1 sequence (P22411 whole entry): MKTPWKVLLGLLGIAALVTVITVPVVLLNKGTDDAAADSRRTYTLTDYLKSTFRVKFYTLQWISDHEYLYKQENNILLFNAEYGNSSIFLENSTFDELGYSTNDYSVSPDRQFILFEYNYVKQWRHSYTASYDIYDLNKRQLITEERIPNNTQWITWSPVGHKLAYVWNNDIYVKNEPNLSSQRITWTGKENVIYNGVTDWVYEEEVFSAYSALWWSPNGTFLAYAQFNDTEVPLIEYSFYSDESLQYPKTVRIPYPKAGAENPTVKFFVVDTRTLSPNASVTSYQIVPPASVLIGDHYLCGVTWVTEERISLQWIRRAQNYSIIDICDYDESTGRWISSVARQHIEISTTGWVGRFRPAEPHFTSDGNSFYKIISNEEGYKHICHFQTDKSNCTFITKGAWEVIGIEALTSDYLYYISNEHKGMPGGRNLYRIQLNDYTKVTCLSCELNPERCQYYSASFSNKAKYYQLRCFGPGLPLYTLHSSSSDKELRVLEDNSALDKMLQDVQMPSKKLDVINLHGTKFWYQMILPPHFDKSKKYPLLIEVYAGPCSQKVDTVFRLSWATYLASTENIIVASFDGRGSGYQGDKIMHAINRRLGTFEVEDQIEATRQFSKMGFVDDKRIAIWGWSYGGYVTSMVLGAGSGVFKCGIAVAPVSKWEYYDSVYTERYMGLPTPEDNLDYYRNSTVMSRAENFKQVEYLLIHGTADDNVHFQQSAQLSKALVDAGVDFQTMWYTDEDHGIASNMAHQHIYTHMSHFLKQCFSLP

IC50 [1]	IC50 [2]	IC50 [3]	IC50 [4]	SMILES
3.53 nM	31.6 nM	3820 nM	15.9 nM	CC(C)[C@H](N)C(=O)N1CC2CC2C1B(O)O (stereo partly drawn) [Example 1]
9.46 nM	45.1 nM	1470 nM	10.8 nM	CC[C@H](C)[C@H](N)C(=O)N1CC2CC2C1B(O)O (stereo partly drawn) [Example 3]
10.2 nM	75 nM	21100 nM	18.4 nM	CC(C)(C)[C@H](N)C(=O)N1CC2CC2C1B(O)O (stereo partly drawn) [Example 2]
